Measurements published in ChEMBL document CHEMBL5360549, “Recent advances in the development of methyltransferase (MTase) inhibitors against (re)emerging arboviruses diseases dengue and Zika” (Eur J Med Chem, 2023).
Each block holds one compound with its values, some of them ahead of it.

Legend:
[1] = Inhibition of Dengue virus 3 guanine-N7 methyltransferase assessed as inhibition constant; parameters: species or system dengue virus type 3
[2] = Inhibition of Dengue virus 3 nucleoside-2'O-methyltransferase assessed as inhibition constant; parameters: species or system dengue virus type 3
[3] = Inhibition of Zika virus NS5-methyltransferase using GpppAC4 and [3H]AdoMet as substrate incubated for 30 mins by liquid scintillation counter analysis
[4] = system: Zika virus; test: Inhibition of Zika virus NS5-methyltransferase at 50 uM using GpppAC4 and [3H]AdoMet as substrate incubated for 30 mins by liquid scintillation counter analysis relative to control
[5] = Binding affinity to Zika virus NS5-methyltransferase assessed as dissociation constant by isothermal titration microcalorimetry method
[6] = system: dengue virus type 1; test: Antiviral activity against Dengue virus 1 infected in asian tiger mosquito C6/36 cells assessed as reduction in virus replication by methyleneblue staining based analysis; format: functional, organism-based
[7] = system: dengue virus type 2; test: Antiviral activity against Dengue virus 2 infected in asian tiger mosquito C6/36 cells assessed as reduction in virus replication by methyleneblue staining based analysis; format: functional, organism-based
[8] = system: dengue virus type 4; test: Antiviral activity against Dengue virus 4 infected in asian tiger mosquito C6/36 cells assessed as reduction in virus replication by methyleneblue staining based analysis; format: functional, organism-based
[9] = Cytotoxicity against hamster BHK-21 cells assessed as reduction in cell growth measured after 24 hrs by MTT assay; format: toxicity, cell-based, Mesocricetus auratus
[10] = Cytotoxicity against human A549 cells assessed as reduction in cell growth measured after 24 hrs by MTT assay; format: toxicity, cell-based
[11] = Cytotoxicity against human Huh-7 cells assessed as reduction in cell growth measured after 24 hrs by MTT assay; format: toxicity, cell-based
[12] = Cytotoxicity against HEK293T cells assessed as reduction in cell growth measured after 24 hrs by MTT assay; format: toxicity, cell-based, HEK-293T; conditions: human
[13] = system: Zika virus; test: Antiviral activity against Zika virus infected in African green monkey Vero cells assessed as reduction in viral plaques by plaque reduction assay; format: functional, organism-based
[14] = Inhibition of Dengue virus NS5-methyltransferase using GpppAC4 and [3H]AdoMet as substrate incubated for 30 mins by liquid scintillation counter analysis
[15] = system: Zika virus; test: Antiviral activity against Zika virus; format: functional, organism-based
[16] = target: T1, mRNA cap guanine-N(7) methyltransferase (Homo sapiens, UniProt O43148); test: Inhibition of human RNMT using GpppAC4 and [3H]AdoMet as substrate incubated for 30 mins by liquid scintillation counter analysis
T1 sequence (O43148 whole entry): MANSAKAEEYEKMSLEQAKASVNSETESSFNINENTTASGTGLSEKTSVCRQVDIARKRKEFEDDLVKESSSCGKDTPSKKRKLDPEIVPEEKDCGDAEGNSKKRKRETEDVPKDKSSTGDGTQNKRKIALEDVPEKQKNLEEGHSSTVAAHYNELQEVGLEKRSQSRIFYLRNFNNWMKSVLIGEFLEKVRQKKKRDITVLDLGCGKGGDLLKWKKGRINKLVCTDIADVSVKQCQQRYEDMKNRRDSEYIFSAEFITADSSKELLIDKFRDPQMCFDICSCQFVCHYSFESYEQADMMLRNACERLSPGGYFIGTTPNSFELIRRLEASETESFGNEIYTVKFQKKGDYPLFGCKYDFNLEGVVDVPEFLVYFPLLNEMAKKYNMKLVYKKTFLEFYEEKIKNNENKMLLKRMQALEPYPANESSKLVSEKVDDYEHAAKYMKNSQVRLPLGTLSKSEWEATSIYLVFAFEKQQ

[17] = system: dengue virus type 2; test: Inhibition of Dengue virus 2 NS5-methyltransferase at 50 uM by HTRF assay relative to control
[18] = target: T1, mRNA cap guanine-N(7) methyltransferase; test: Inhibition of human RNMT at 50 uM using polyU as substrate incubated for 10 mins in presence of [3H] ATP and ATP by liquid scintillation counter analysis relative to control
[19] = target: T1, mRNA cap guanine-N(7) methyltransferase; test: Inhibition of human RNMT assessed as inhibition constant

Structure (SMILES): N[C@H](CCSC[C@H]1O[C@@H](n2cnc3c(NCc4cccc(Br)c4)ncnc32)[C@H](O)[C@@H]1O)C(=O)O
Ki [1]: 770 nM
Ki [2]: 150 nM

Structure (SMILES): N[C@H](CCSC[C@H]1O[C@@H](n2cnc3c(Nc4ccccc4)ncnc32)[C@H](O)[C@@H]1O)C(=O)O
Ki [1]: 770 nM
Ki [2]: 150 nM

inhibition [4]: 30%
Structure (SMILES): COc1ccc(NC(=O)Nc2ccc3c(c2)c2ccccc2n3Cc2ccccc2)c(OC)c1
IC50 [3]: 23000 nM

Structure (SMILES): N[C@H](CCSC[C@H]1O[C@@H](n2cnc3c(NCc4cccc(Cl)c4)ncnc32)[C@H](O)[C@@H]1O)C(=O)O
Ki [1]: 820 nM
Ki [2]: 170 nM

Structure (SMILES): Cc1cccc(CNc2ncnc3c2ncn3[C@@H]2O[C@H](CSCC[C@@H](N)C(=O)O)[C@@H](O)[C@H]2O)c1
Ki [1]: 770 nM
Ki [2]: 150 nM

inhibition [4]: 30%
Structure (SMILES): O=C(Nc1ccc(I)cc1)Nc1ccc2c(c1)c1ccccc1n2Cc1ccccc1
IC50 [3]: 23000 nM

Structure (SMILES): C[S+](CC[C@H](N)C(=O)[O-])C[C@H]1O[C@@H](n2cnc3c(N)ncnc32)[C@H](O)[C@@H]1O (stereo partly specified) [ADEMETIONINE]
Kd [5]: 2580 nM

Structure (SMILES): CCC(/C(C)=C/c1cc(OC)c(OC)cc1OC)c1cc(OC)c(OC)cc1OC (stereo unspecified)
EC50 [6]: 4270 nM
EC50 [7]: 4500 nM
EC50 [8]: 4540 nM
CC50 at 24 h [9]: > 80000 nM
CC50 at 24 h [10]: > 80000 nM
CC50 at 24 h [11]: > 80000 nM
CC50 at 24 h [12]: > 80000 nM

Structure (SMILES): Nc1ncnc2c1ncn2[C@@H]1O[C@H](CN(CCC(N)C(=O)O)Cc2ccc(F)cc2)[C@@H](O)[C@H]1O (stereo partly specified)
Kd [5]: 24300 nM

EC50 [13]: 12500 nM
Structure (SMILES): COCCCNC(=O)c1ccc(Cn2c(=O)c3ccccc3n(CC(=O)NCCc3ccc(OC)c(OC)c3)c2=O)cc1

Structure (SMILES): N[C@H](CCSC[C@H]1O[C@@H](n2cnc3c(NCc4cccc(F)c4)ncnc32)[C@H](O)[C@@H]1O)C(=O)O
Ki [1]: 770 nM
Ki [2]: 150 nM

EC50 [13]: 17600 nM
Structure (SMILES): Cc1ccnc(NS(=O)(=O)c2ccc(NC(=O)c3ccc(S(=O)(=O)N4CCc5ccccc5C4)cc3)cc2)n1

Structure (SMILES): N[C@H](CCSC[C@H]1O[C@@H](n2cnc3c(NCc4cccc(I)c4)ncnc32)[C@H](O)[C@@H]1O)C(=O)O
Ki [1]: 770 nM
Ki [2]: 150 nM

EC50 [15]: > 3990 nM
inhibition [4]: 30%
Structure (SMILES): CCn1c2ccccc2c2cc(NC(=O)Nc3ccc([N+](=O)[O-])cc3C)ccc21
IC50 [14]: 38000 nM
IC50 [3]: 35000 nM

EC50 [13]: 4800 nM
Structure (SMILES): O=C1c2cccc3cccc(c23)C(=O)N1CCc1ccc(S(=O)(=O)N2CCN(c3ccccc3)CC2)cc1

Structure (SMILES): CNc1ncnc2c1ncn2[C@@H]1O[C@H](CSCC[C@@H](N)C(=O)O)[C@@H](O)[C@H]1O
Ki [1]: 770 nM
Ki [2]: 150 nM

Structure (SMILES): Nc1ncnc2c1ncn2[C@@H]1O[C@H](C[C@@H](N)CC[C@H](N)C(=O)O)[C@@H](O)[C@H]1O [SINEFUNGIN]
IC50 [14]: 1180 nM
IC50 [16]: 5300 nM

Structure (SMILES): N[C@H](CCSC[C@H]1O[C@@H](n2cnc3c(NCCc4ccccc4)ncnc32)[C@H](O)[C@@H]1O)C(=O)O
Ki [1]: 770 nM
Ki [2]: 150 nM

inhibition [4]: 30%
Structure (SMILES): COc1ccc(NC(=O)Nc2ccc3c(c2)c2ccccc2n3CCc2ccccc2)c(OC)c1
IC50 [3]: 23000 nM

Structure (SMILES): Cc1ccccc1CNc1ncnc2c1ncn2[C@@H]1O[C@H](CSCC[C@@H](N)C(=O)O)[C@@H](O)[C@H]1O
Ki [1]: 770 nM
Ki [2]: 150 nM

Structure (SMILES): Cc1ccc(CNc2ncnc3c2ncn3[C@@H]2O[C@H](CSCC[C@@H](N)C(=O)O)[C@@H](O)[C@H]2O)cc1
Ki [1]: 770 nM
Ki [2]: 150 nM

Structure (SMILES): N[C@H](CCSC[C@H]1O[C@@H](n2cnc3c(NC4CC4)ncnc32)[C@H](O)[C@@H]1O)C(=O)O
Ki [1]: 770 nM
Ki [2]: 150 nM

inhibition [17]: 98.6%
inhibition [18]: 96%
Structure (SMILES): CCCCCCCCCCCCCCCC[N+](C)(C)CCN(Cc1ccc(OC)cc1)c1ncccn1

EC50 [13]: 17500 nM
Structure (SMILES): Cc1ccc2c(c1)c(=O)c(C(=O)c1ccccc1)cn2CC(=O)Nc1ccccc1C

inhibition [17]: 97.8%
inhibition [18]: 98.6%
Structure (SMILES): Cc1cc(/C=C/c2ccc3cc(N(C)C)ccc3[n+]2C)c(C)n1-c1ccccc1

Ki [19]: > 50000 nM
Structure (SMILES): Nc1ncnc2c1ncn2[C@@H]1O[C@H](CSCC[C@H](N)C(=O)O)[C@@H](O)[C@H]1O [S-ADENOSYLHOMOCYSTEINE]
Ki [1]: 3190 nM
Ki [2]: 570 nM

Structure (SMILES): N[C@H](CCSC[C@H]1O[C@@H](n2cnc3c(NCc4ccccc4)ncnc32)[C@H](O)[C@@H]1O)C(=O)O
Ki [1]: 770 nM
Ki [2]: 150 nM
